“Also recorded” adds a separate entry of the source.
What was measured:
[1] = system: NOS2; experiment: Western blot of NOS2 in MCF-7 cells; assay type: cell-based, Human; settings: MCF-7, 6.72 µM, 48 h
Procedure: Protein lysates were prepared using RIPA buffer containing cocktail of protease and phosphatase inhibitors (Roche, Basel, Switzerland). Amounts of 50 μg of proteins were resolved on 12% SDS polyacrylamide gels using the Mini-protean cell (Bio-Rad, Hercules, CA, USA). The membranes were incubated with primary antibodies raised against hydroxy-HIF-1α (Pro564) (HIF-1α, 1:1000, rabbit mAb, Cell Signaling Technology, NL) and NOS2 (1:500, mouse mAb, SantaCruzBiotechnology, Dallas, TX, USA) at 4 °C overnight. A secondary antibody linked to anti-mouse (1:1000, Dako, Santa Clara, CA, USA) was used. The signal was visualized by the Western Lightening Chemiluminescence Reagent Plus Kit (Perkin Elmer, Massachusetts, MA, USA) on the ImageQuant LAS500 (GE Healthcare, Chicago, IL, USA), and as a loading control, α-tubulin (1:1000, mouse mAb, Sigma, Sigma Aldrich, Darmstadt, Germany) was used. The signal intensities of bands were normalized and compared in Quantity One software (Bio-Rad, Hercules, CA, USA). Differences in protein relative expression status obtained by western blot analysis were analyzed by two-tailed, paired t-tests (p < 0.05) in the Statistica software package (v.12.0).

[2] = system: MCF-7 cells; experiment: Annexin V apoptosis detection assay; assay type: cell-based, Human
Procedure: A total of 2 × 10^4 MCF-7 cells were seeded into 8-well Nunc Lab-Tek II Chamber Slide system (Thermo Fischer Scientific, Waltham, MA, USA), and treated with compound 4e at 1 × IC50 and 2 × IC50 for 24 and 48 h. The assay (Annexin-V-FLUOS Staining kit, Roche Applied Science, Penzberg, Germany) was preformed according to the manufacturer protocol. Slides were analyzed by fluorescence microscopy (Zeiss Axio Observer Z1 Inverted Phase Contrast Fluorescent Microscope, Jena, Germany)).

[3] = system: tested cell lines (A549, CFPAC-1, HCT-116, HeLa, HepG2, MCF-7, SW620, WI-38, HFF-1); experiment: MTT proliferation assay, whole tested cell panel; assay type: cell-based, Human; settings: 0.01 µM to 100 µM, 72 h
Procedure: The C-6 substituted 1,2,3-triazole derivatives of L-ASA within the C5-OH group ([…], 4i, 4k−4t, and 4v) and with the C4=C5 double bond (7c−7g and 7i−7q) were evaluated against seven malignant tumor cell lines: lung adenocarcinoma (A549), ductal pancreatic adenocarcinoma (CFPAC-1), colorectal carcinoma (HCT-116), cervical carcinoma (HeLa), hepatocellular carcinoma (HepG2), breast adenocarcinoma (MCF-7), colorectal adenocarcinoma, and metastatic (SW620); as well as normal cell lines: lung fibroblasts (WI-38) and foreskin fibroblasts (HFF-1) (Table 3, Table S1, Supplementary Information). L-ASA was used as a positive control, and carboxyamidotriazole, a known antiproliferative agent that inhibits tumor cell growth, invasion, and metastasis, and 5-fluorouracil (5-FU), were used as reference compounds.
Human tumor cell lines HeLa (cervical carcinoma), SW620 (colorectal adenocarcinoma, metastatic), A549 (lung adenocarcinoma), MCF−7 (breast adenocarcinoma), CFPAC-1 (pancreatic adenocarcinoma, metastatic), HCT-116 (colorectal carcinoma), and HepG2 (hepatocellular carcinoma), and normal cell lines HFF-1 (foreskin fibroblasts) and WI-38 (immortalized human lung fibroblast), were from the US American Type Culture Collection (ATCC, Manassas, VA, USA). Cells were cultured in a liquid nutrient medium (Dulbecco’s Modified Eagle Medium, LONZA, Basel, Switzerland) supplemented with 10% fetal bovine serum (FBS, Gibco, Grand Island, NY, USA), 2 mM L-glutamine (GIBCO, Grand Island, NY, USA), 100 μg/mL penicillin, and 100 μg/mL streptomycin (LONZA, Basel, Switzerland), in an incubator (NÜVE, Ankara, Turkey), at a humid atmosphere with 5% CO2 at 37 °C. Trypsin/EDTA Solution (Lonza, Basel, Switzerland), was used for cell passaging and cell detachment.
Adherent cells were seeded on 96 well microtiter plates (Falcon, New York, NY, USA) at a seeding density of 5000 cells per well, added in 150 μL of cell suspension in a nutrient medium. 24 h after seeding, cells were treated with compound 4b–4g, 4i, 4k–4t, 4v, 7c–7g, and 7i–7q dilutions in the range of 0.01 μM to 100 μM. L-ascoric acid (Sigma Aldrich, Darmstadt, Germany) and Carboxyamidotriazole (Sigma Aldrich, Darmstadt, Germany) were used as control compounds. Incubation of the cells with the compounds were performed for 72 h in a 5% CO2, in humid atmosphere at 37 °C. After incubation, nutrient medium was removed and 40 μL of the MTT reagent ([…]-2,5-diphenyltetrazole bromide (Invitrogen, Carlsbad, CA, USA) was added to each well. 3 h after incubation, 160 μL of DMSO (VWR CHEMICALS, Radnor, PA, USA) were added to each well to dissolve the crystals of purple formazane. The absorbance was measured at 570 nm (TECAN SUNRISE Microtiter plate reader (Männedorf, Switzerland). The experimentally measured optical densities (OD) were converted to the PG (percentage of growth), using the formulas according to the protocol assumed by NIH (National Institute of Health). The IC50 values (concentration causing 50% cell growth inhibition) for each compound were calculated by regression analysis of the survival count curve of the concentrations of the tested compounds. The results were processed in Excel 2010 (Microsoft, Redmond, WA, USA).

[4] = MCF-7, 24 h, 6.72 µM (1 × IC50)
[5] = MCF-7, 24 h, 13.44 µM (2 × IC50)
[6] = MCF-7, 24 h, 1 × IC50, versus untreated cells
[7] = MCF-7, 48 h, 6.72 µM (1 × IC50)
[8] = MCF-7, 48 h, 13.44 µM (2 × IC50)

SMILES	NOS2 expression [1]	melting point [°C]	Early Apoptosis (%) [2, 4] [%]	Late Apoptosis (%) [2, 4] [%]	Necrosis (%) [2, 4] [%]	Early Apoptosis (%) [2, 5] [%]	Late Apoptosis (%) [2, 5] [%]	Necrosis (%) [2, 5] [%]	increase in early apoptotic cell population [2, 6] [%]	increase in late apoptotic cell population [2, 6] [%]	Early Apoptosis (%) [2, 7] [%]	Late Apoptosis (%) [2, 7] [%]	Necrosis (%) [2, 7] [%]	Early Apoptosis (%) [2, 8] [%]	Late Apoptosis (%) [2, 8] [%]	Necrosis (%) [2, 8] [%]	percentage of cells in early apoptosis higher than in untreated cells ([2]; MCF-7, 48 h, 1 × IC50, versus untreated cells) [%]	antiproliferative / cytotoxic effect on the tested cell lines (in words) [3]
O=C1O[C@H]([C@@H](O)Cn2cc(-c3ccc(Br)cc3)nn2)C(O)=C1O [Compound 4e, 6-[4-(4-bromophenyl)-1,2,3-triazol-1-yl]-6-deoxy-L-ascorbic acid]	decreased expression; also recorded: somewhat decreased	159 to 160	30.6	6.4	0.8	5.3	38.1	15.9	12.4	2.0	46.6	4.2	0.8	9.1	2.3	0	35.2	–
O=C1O[C@H]([C@@H](O)CO)C(O)=C1O [L-ASA, L-ascorbic acid]	–	–	–	–	–	–	–	–	–	–	–	–	–	–	–	–	–	no effects on the cell growth

Source: article PMC6801448, “The Antioxidant and Antiproliferative Activities of 1,2,3-Triazolyl-L-Ascorbic Acid Derivatives” (International Journal of Molecular Sciences, 2019)
